# Source: patent US8754132B2 (The Board of Trustees of the University of Illinois, priority 2010, dated 2014)
# Values joined by “and” are separate entries in the source; they are usually repeats but may differ in a detail not shown here. Identical values can stand only once. Counter-ions that a name gives are not always drawn. Like-named read-outs stand apart in the source and are kept apart here.
# Tests used:
# Type in all cases: cell-based
# [1] = target: T1, human 5-HT(2C) (INI) receptor (Homo sapiens, UniProt P28335); test: Calcium flux assay, stably transfected HEK-293 cells, 5-HT2C; conditions: for 5-HT2C % Max ± SEM: percent of maximal activation by 5-HT; for Emax 2C/2A / Emax 2C/2B: Emax ratio
# T1 construct: expressed in transfected cells
# T1 sequence (P28335 33-458): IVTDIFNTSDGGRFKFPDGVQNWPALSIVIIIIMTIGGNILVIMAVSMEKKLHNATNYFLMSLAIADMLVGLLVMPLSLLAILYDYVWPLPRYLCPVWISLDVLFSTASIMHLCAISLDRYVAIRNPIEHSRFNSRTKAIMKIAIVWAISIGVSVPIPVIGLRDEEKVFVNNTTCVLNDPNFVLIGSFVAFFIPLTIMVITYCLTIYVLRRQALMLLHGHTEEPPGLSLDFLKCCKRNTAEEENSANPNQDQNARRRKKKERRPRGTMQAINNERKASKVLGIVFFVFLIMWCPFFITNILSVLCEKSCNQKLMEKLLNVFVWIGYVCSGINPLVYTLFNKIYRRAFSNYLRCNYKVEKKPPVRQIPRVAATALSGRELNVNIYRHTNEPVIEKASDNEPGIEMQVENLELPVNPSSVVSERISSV
# 5-HT(2A) receptor [2] = target: T2, 5-HT(2A) receptor (Homo sapiens, UniProt P28223); test: cell-based; design: expressed in transfected cells; conditions: for 5-HT2A % Max ± SEM: percent of maximal activation by 5-HT, activation at 10 μM for compounds without EC50 value
# 5-HT(2B) receptor [3] = target: T3, 5-HT(2B) receptor (Homo sapiens, UniProt P41595); test: Calcium flux assay, stably transfected HEK-293 cells, 5-HT2B; design: expressed in transfected cells; conditions: for 5-HT2B % Max ± SEM: percent of maximal activation by 5-HT, activation at 10 μM for compounds without EC50 value
# 5-HT(2C) receptor = target: T4, 5-HT(2C) receptor (Homo sapiens, UniProt P28335); test: Modulation of 5-HT(2) family receptors, Table 1, 2C Receptor
# T4 sequence (P28335 33-458): T1 sequence (P28335 33-458)
# 5-HT(2B) receptor [4] = target: T3, 5-HT(2B) receptor; test: Modulation of 5-HT(2) family receptors, Table 1, 2B Receptor; conditions: for 2B Receptor ED50: NA = No activity
# 5-HT(2A) receptor [5] = target: T2, 5-HT(2A) receptor; test: Modulation of 5-HT(2) family receptors, Table 1, 2A Receptor; conditions: for 2A Receptor ED50: NA = No activity
# T3 sequence (P41595 whole entry): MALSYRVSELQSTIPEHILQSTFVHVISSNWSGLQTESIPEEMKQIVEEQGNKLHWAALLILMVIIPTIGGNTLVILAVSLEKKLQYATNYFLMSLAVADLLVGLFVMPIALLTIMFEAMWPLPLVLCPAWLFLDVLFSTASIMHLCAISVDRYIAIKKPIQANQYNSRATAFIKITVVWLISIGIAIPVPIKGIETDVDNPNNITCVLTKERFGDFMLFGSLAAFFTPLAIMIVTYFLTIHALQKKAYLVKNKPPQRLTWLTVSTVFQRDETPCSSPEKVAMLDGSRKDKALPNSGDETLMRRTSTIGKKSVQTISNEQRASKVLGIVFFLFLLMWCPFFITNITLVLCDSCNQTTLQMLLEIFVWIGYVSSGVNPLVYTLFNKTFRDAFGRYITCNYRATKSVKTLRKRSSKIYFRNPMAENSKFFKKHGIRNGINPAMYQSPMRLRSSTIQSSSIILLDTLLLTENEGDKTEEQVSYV
# T2 sequence (P28223 whole entry): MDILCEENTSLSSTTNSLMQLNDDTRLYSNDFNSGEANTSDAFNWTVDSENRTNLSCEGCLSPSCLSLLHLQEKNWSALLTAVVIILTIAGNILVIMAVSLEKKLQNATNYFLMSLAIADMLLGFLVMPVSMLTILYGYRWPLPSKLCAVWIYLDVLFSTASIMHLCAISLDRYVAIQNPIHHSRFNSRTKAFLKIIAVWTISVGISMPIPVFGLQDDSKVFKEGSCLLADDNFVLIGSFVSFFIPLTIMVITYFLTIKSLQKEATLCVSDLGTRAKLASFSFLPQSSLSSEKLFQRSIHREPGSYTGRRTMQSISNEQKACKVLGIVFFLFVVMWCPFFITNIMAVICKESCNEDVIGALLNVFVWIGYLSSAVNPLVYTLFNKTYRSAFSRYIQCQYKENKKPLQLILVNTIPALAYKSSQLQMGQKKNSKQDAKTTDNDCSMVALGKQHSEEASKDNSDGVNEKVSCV
compound,measurement,setting,value
"Cl.NC[C@@H]1C[C@H]1c1cc(O)ccc1OCC1CC1 (racemic) [Compound 18, trans-[2-(2-Cyclopropylmethyloxy-5-hydroxyphenyl)cyclopropyl]methylamine Hydrochloride]",EC50,"[1]; 5-HT2C EC50 ± SEM, Table 2, first section",19 nM
same,5-HT2C % Max ± SEM,"[1]; Table 2, first section",68% ±
same,5-HT2A % Max ± SEM,"5-HT(2A) receptor [2]; Table 2, first section",7% ±
same,5-HT2B % Max ± SEM,"5-HT(2B) receptor [3]; Table 2, first section",6% ±
trans-[2-(2-cyclopropylmethyloxy-5-fluorophenyl)cyclopropyl]-methylamine hydrochloride [(−)-12],Emax 2C/2A,"[1]; Table 2, second section",>>
same,Emax 2C/2B,"[1]; Table 2, second section",8.0
same,5-HT2C % Max ± SEM,"[1]; Table 2, second section",35% ±
same,EC50,"[1]; Table 2, second section, read-out: 5-HT2C EC50 ± SEM",918 nM
same,EC50,"[1]; read-out: EC50 in the 5-HT(2C) assay, running text b178",~2400 nM
same,5-HT2A % Max ± SEM,"5-HT(2A) receptor [2]; Table 2, second section",0% ±
same,5-HT2B % Max ± SEM,"5-HT(2B) receptor [3]; Table 2, second section",4% ±
"NC[C@@H]1C[C@H]1c1cc(F)ccc1OCC1CC1 (relative stereo) [Compound 12, trans-[2-(2-Cyclopropylmethyloxy-5-fluorophenyl)cyclopropyl]methylamine Hydrochloride]",Emax 2C/2A,"[1]; Table 2, first section",6.2
same,Emax 2C/2B,"[1]; Table 2, first section",38
same,activation of the 5-HT(2A) receptor (in words),5-HT(2A) receptor [2]; functional assays,not to activate
same,activation of the 5-HT(2B) receptor (in words),5-HT(2B) receptor [3]; functional assays,not to activate
Cl.NCC1CC1c1cc(Br)ccc1CCC1CC1 (stereo not drawn) [Compound 51],2C Receptor Emax,5-HT(2C) receptor,92
same,2B Receptor ED50,5-HT(2B) receptor [4],no activity
same,2A Receptor ED50,5-HT(2A) receptor [5],no activity
"Cl.NC[C@@H]1C[C@H]1c1cc(F)ccc1OCC1CC1 (racemic) [Compound 12, trans-[2-(2-Cyclopropylmethyloxy-5-fluorophenyl)cyclopropyl]methylamine Hydrochloride]",EC50,"[1]; EC50 at the 5-HT(2C) receptor, running text b178, functional assays",254 nM
same,Selectivity 2A/2C,"[1]; Table 2, first section, EC50 ratio",77
same,5-HT2C % Max ± SEM,"[1]; Table 2, first section",68% ±
same,EC50,"[1]; Table 2, first section, read-out: 5-HT2C EC50 ± SEM",9.9 nM
same,5-HT2A % Max ± SEM,"5-HT(2A) receptor [2]; Table 2, first section",11% ±
same,EC50,5-HT(2A) receptor [2]; read-out: 5-HT2A EC50 ± SEM,761 nM
same,5-HT2B % Max ± SEM,"5-HT(2B) receptor [3]; Table 2, first section",2% ±
Cl.NCC1CC1c1ccccc1CCC1CC1 (stereo not drawn) [Compound 50],2C Receptor Emax,5-HT(2C) receptor,35 and 60
same,2B Receptor ED50,5-HT(2B) receptor [4],no activity
same,2A Receptor ED50,5-HT(2A) receptor [5],no activity
"NC[C@@H]1C[C@H]1c1cc(O)ccc1OCC1CC1 (relative stereo) [Compound 18, trans-[2-(2-Cyclopropylmethyloxy-5-hydroxyphenyl)cyclopropyl]methylamine Hydrochloride]",Emax 2C/2A,"[1]; Table 2, first section",9.4
same,Emax 2C/2B,"[1]; Table 2, first section",12
CC(C)c1ccc(CCC2CC2)c(C2CC2CN)c1.Cl (stereo not drawn) [Compound 53],2C Receptor Emax,5-HT(2C) receptor,93
same,2B Receptor Emax,5-HT(2B) receptor [4],66
same,2A Receptor Emax,5-HT(2A) receptor [5],92
"C[C@H]1CNCCc2ccc(Cl)cc21 [2 (Lorcaserin), Lorcaserin, reference compound]",agonist potency at the 5-HT(2C) receptor (in words),[1],low nM potency
same,5-HT2C % Max ± SEM,"[1]; Table 2, first section",99% ±
same,5-HT2C % Max ± SEM,"[1]; Table 2, second section",94% ±
same,5-HT2A % Max ± SEM,"5-HT(2A) receptor [2]; Table 2, first section",24% ±
same,5-HT2A % Max ± SEM,"5-HT(2A) receptor [2]; Table 2, second section",31% ±
same,5-HT2B % Max ± SEM,"5-HT(2B) receptor [3]; Table 2, first section",93% ±
same,5-HT2B % Max ± SEM,"5-HT(2B) receptor [3]; Table 2, second section",86% ±
"NCC1CC1c1cc(O)ccc1OCC1CC1 (single isomer, unassigned; (-)) [(−)-18]",EC50,"[1]; 5-HT2C EC50 ± SEM, Table 2, second section",361 nM
same,Emax 2C/2A,"[1]; Table 2, second section",19
same,Emax 2C/2B,"[1]; Table 2, second section",>>
same,5-HT2C % Max ± SEM,"[1]; Table 2, second section",51% ±
same,5-HT2A % Max ± SEM,"5-HT(2A) receptor [2]; Table 2, second section",3% ±
same,5-HT2B % Max ± SEM,"5-HT(2B) receptor [3]; Table 2, second section",0% ±
"NCCc1c[nH]c2ccc(O)cc12 [Compound 5-HT, 5-Hydroxytryptamine, reference compound]",5-HT2A % Max ± SEM,"5-HT(2A) receptor [2]; Table 2, first section",100%
same,5-HT2A % Max ± SEM,"5-HT(2A) receptor [2]; Table 2, second section",100% ±
Cc1ccc(CCC2CC2)c(C2CC2CN)c1.Cl (stereo not drawn) [Compound 52],2C Receptor Emax,5-HT(2C) receptor,98
same,2B Receptor Emax,5-HT(2B) receptor [4],35
same,2A Receptor Emax,5-HT(2A) receptor [5],47
